Legend:
MCF7 [1] = assay: Induction of apoptosis in human MCF7 cells assessed as necrotic cells at IC50 after 24 to 48 hrs by Annexin V-FITC/7-AAD dual staining based flow cytometry (reference value: 0.20%); assay type: functional
HepG2 = assay: Antiproliferative activity against human HepG2 cells after 48 hrs by MTT assay; assay type: functional, cell-based; settings: HepG2, 48 h
MCF7 [2] = assay: Induction of apoptosis in human MCF7 cells assessed as early apoptotic cells at IC50 after 24 to 48 hrs by Annexin V-FITC/7-AAD dual staining based flow cytometry (reference value: 2.74%); assay type: functional
HEK293 = assay: Antiproliferative activity against HEK293 cells after 48 hrs by MTT assay; assay type: cell-based; settings: Homo sapiens, HEK293, 48 h
MCF7 [3] = assay: Antiproliferative activity against human MCF7 cells after 48 hrs by MTT assay; assay type: functional, cell-based
MCF7 [4] = assay: Induction of apoptosis in human MCF7 cells assessed as viable cells at IC50 after 24 to 48 hrs by Annexin V-FITC/7-AAD dual staining based flow cytometry (reference value: 95.8%); assay type: functional
Carbonic anhydrase 9 = Carbonic anhydrase 9 (Homo sapiens, UniProt Q16790); assay: Inhibition of human carbonic anhydrase 9 expressed in Escherichia coli BL21 D3 strain using p-nitrophenyl acetate as substrate by UV/visible spectrophotometry
MCF7 [5] = assay: Induction of apoptosis in human MCF7 cells assessed as late apoptotic cells at IC50 after 24 to 48 hrs by Annexin V-FITC/7-AAD dual staining based flow cytometry (reference value: 1.14%); assay type: functional
Carbonic anhydrase 2 = Carbonic anhydrase 2 (Homo sapiens, UniProt P00918); assay: Inhibition of human carbonic anhydrase 2 expressed in Escherichia coli BL21 D3 strain using p-nitrophenyl acetate as substrate by UV/visible spectrophotometry
[6] = Homo sapiens, MCF7, 48 h, read-out: IC50

IC50 (HepG2) [µM]	IC50 (MCF7 [3]; [6]) [µM]	IC50 (MCF7 [3]; mcf7)	IC50 (Carbonic anhydrase 9) [µM]	IC50 (Carbonic anhydrase 2) [µM]	Structure (SMILES)	Activity (MCF7 [1]) [%]	Activity (MCF7 [2]) [%]	IC50 (HEK293) [µM]	Activity (MCF7 [4]) [%]	Activity (MCF7 [5]) [%]
14.8	12.2	Dose-dependent effect	0.13		O=C(/C=C/c1cn(S(=O)(=O)c2ccc(Cl)cc2Cl)c2ccccc12)c1ccncc1	0.53	78.8	> 150	10.6	10
44.8	48.9		29.9		Cc1ccc(S(=O)(=O)n2cc(/C=C/C(=O)c3ccncc3)c3ccccc32)cc1			> 150		
35.1	37.5		14.4		O=C(/C=C/c1cn(S(=O)(=O)c2ccc(Cl)cc2)c2ccccc12)c1ccncc1			> 150		
			0.15		O=C(/C=C/c1cn(S(=O)(=O)c2ccc([N+](=O)[O-])cc2)c2ccccc12)c1ccncc1					
49.3	45.3				O=C(/C=C/c1c[nH]c2ccccc12)c1ccncc1			> 150		
18.7					COc1cccc2c1C(=O)c1c(O)c3c(c(O)c1C2=O)C[C@@](O)(C(=O)CO)C[C@@H]3O[C@H]1C[C@H](N)[C@H](O)[C@H](C)O1 [DOXORUBICIN]			143		
62.9	58		44.1		O=C(/C=C/c1cn(S(=O)(=O)c2cccc3ccccc23)c2ccccc12)c1ccncc1			> 150		
27	24	Dose-dependent effect	0.15		CC(C)(C)c1ccc(S(=O)(=O)n2cc(/C=C/C(=O)c3ccncc3)c3ccccc32)cc1	19.6	3.24	> 150	58.26	18.9
42.6	36.3		37.6		O=C(/C=C/c1cn(S(=O)(=O)c2cccc([N+](=O)[O-])c2)c2ccccc12)c1ccncc1			> 150		
26	65.8		26.1		COc1ccc(S(=O)(=O)n2cc(/C=C/C(=O)c3ccncc3)c3ccccc32)cc1			> 150		
46.2	52.4		44.5	> 100	CCCS(=O)(=O)n1cc(/C=C/C(=O)c2ccncc2)c2ccccc21			> 150		
31.7	36.9		57.3		O=C(/C=C/c1cn(S(=O)(=O)c2ccccc2[N+](=O)[O-])c2ccccc12)c1ccncc1			> 150		

From ChEMBL document CHEMBL4152281, “Synthesis, characterization and biological evaluation of tertiary sulfonamide derivatives of pyridyl-indole based heteroaryl chalcone as potential carbonic anhydrase IX inhibitors and anticancer agents” (Eur J Med Chem, 2018)
